Measurements: article PMC8037586, “Synthesis and Enantioselective Pharmacokinetic/Pharmacodynamic Analysis of New CNS-Active Sulfamoylphenyl Carbamate Derivatives” (International Journal of Molecular Sciences, 2021)
Where two headings read alike, the source gives them in different places.

What was measured:
[1] = Pharmacokinetics from plasma levels after i.p. administration to rats; format: in vivo, rat; conditions: i.p. 80 mg/kg; for CL/F / Cmax / MRT / Tmax / half-life / Vd/F / AUC(0-inf): male, Sprague Dawley, rat, ip; for Vd/F: read-out: Vss/F; for AUC(0-inf): plasma
Experimental: (§1) The pharmacokinetics (PK) of racemic-MBPC and its two individual enantiomers were studied following i.p. administration (80 mg/kg) to male Sprague Dawley rats weighing approximately 200–250 g, and their major PK parameters were estimated. The PK experiments were approved by the Ethical Committee of the Hebrew University’s Faculty of Medicine. The dose was administered to rats in multisol that is a mixture of propylene glycol, alcohol (EtOH), and water for injection at a ratio of 8:1:1. The study details were as described previously. Plasma and brain levels of racemic-MBPC and its individual enantiomers were monitored at 20, 40, 60, 90, 120, 160, 180, 200, 220, and 260 min after dosing. Two rats were sacrificed at each time point.
(§2) Plasma and brain concentrations of each compound were quantified by an HPLC assay. The HPLC analysis was performed on a system (2695 Separation Module; Waters, Milford, MA, USA) with a photodiode array UV detector (2996 PDA Detector; Waters, Milford, MA, USA) conditioned as follows: Kinetex, 5 u EVO C18 100 A, 1504.6-mm column (PhenomenexVR, Torrance, CA, USA). Linear gradients (5–95% acetonitrile content) with H2O (0.1% formic acid) and acetonitrile were used as the eluents with a flow rate of 1 mL/min at 20 °C. The compounds and the internal standard were detected at 250 nm. Plasma and brain concentrations of MBPC and its two individual enantiomers were quantified as previously described, [29].
(§3) The PK parameters of each compound were calculated by non-compartmental analysis based on statistical moment theory using the PK software Phoenix Winnonlin Tripos L.P. (Pharsight Co., Mountain View, CA, USA) as previously described.

[2] = Pharmacokinetics from brain levels after i.p. administration to rats; format: in vivo, rat; conditions: i.p. 80 mg/kg; for AUCinf / AUC(0-inf) / CL/F / Cmax / MRT / Tmax / half-life / Vd/F: brain levels; for AUCinf / AUC(0-inf): 80 mg/kg; for AUC(0-inf) / Kp / CL/F / Cmax / MRT / Tmax / half-life / Vd/F: male, Sprague Dawley, rat, ip; for Kp: AUCbrain/AUCplasma, read-out: Brain-to-plasma (AUCinf) ratio; for Vd/F: read-out: Vss/F
Experimental: as §1, §2, §3

[3] = system: rat maximal electroshock test (MES); assay: Rat maximal electroshock (MES) anticonvulsant test; format: in vivo; conditions: po, rats dosed p.o., read-out: MES-ED50 [95% CI]
Experimental: The experiments with the MES model were conducted in male Sprague Dawley rats weighing 100–120 g (Charles River Laboratories, Wilmington, MA, USA) as previously described. Eight rats were tested per dose in the dose–response curve in order to determine the ED50 value of each compound. The experiments were approved by the Ethical Committee of the NIH-ETSP program where the anticonvulsant activity was tested.

[4] = Minimal neurotoxicity (TD50) in rats; format: in vivo, rat; conditions: rat, in vivo, po; rats dosed p.o.; read-out: Neurotoxicity-TD50 [95% CI]
Source text: (§4) Table 3 Quantitative anticonvulsant and minimal neurotoxicity data (ED50 and TD50 values) and protective indexes (PI) of […] (MBPC) and 3-methylpentyl(4-sulfamoylphenyl)carbamate (MSPC). in rats dosed p.o. or i.p. ^b. | column: Neurotoxicity-TD50 (mg/kg) [95% CI] ^a; Protective Index (PI = TD50/ED50)

rats [5] = assay: Minimal neurotoxicity (TD50) in rats; format: in vivo, rat; conditions: rats dosed p.o.
Source text: as §4

[6] = target: T1, human carbonic anhydrase (CA) isoform I (Homo sapiens, UniProt P00915); assay: Stopped-flow CO2 hydrase assay, CA I; format: biochemical; conditions: for Ki: means ± SEM of 3 different assays
[7] = target: T2, human carbonic anhydrase (CA) isoform II (Homo sapiens, UniProt P00918); assay: Stopped-flow CO2 hydrase assay, CA II; format: biochemical; conditions: for Ki: means ± SEM of 3 different assays
[8] = target: T3, human carbonic anhydrase (CA) isoform IV (Homo sapiens, UniProt P22748); assay: Stopped-flow CO2 hydrase assay, CA IV; format: biochemical; conditions: means ± SEM of 3 different assays
[9] = target: T4, human carbonic anhydrase (CA) isoform VII (Homo sapiens, UniProt P43166); assay: Stopped-flow CO2 hydrase assay, CA VII; format: biochemical; conditions: for Ki: means ± SEM of 3 different assays
[10] = system: rat maximal electroshock test (MES); design: method as in PMID 28275953, PMID 31124389; conditions: cited from earlier work
rats [11] = system: rats; design: method as in PMID 28275953, PMID 31124389; conditions: cited from earlier work
[12] = target: T1, human carbonic anhydrase (CA) isoform I; design: method as in PMID 28275953, PMID 31124389; conditions: previously reported data; cited from earlier work
[13] = target: T2, human carbonic anhydrase (CA) isoform II; design: method as in PMID 28275953, PMID 31124389; conditions: previously reported data; cited from earlier work
[14] = target: T3, human carbonic anhydrase (CA) isoform IV; design: method as in PMID 28275953, PMID 31124389; conditions: previously reported data; cited from earlier work
[15] = target: T4, human carbonic anhydrase (CA) isoform VII; design: method as in PMID 28275953, PMID 31124389; conditions: previously reported data; cited from earlier work
[16] = Enantiostability: extraction from rat plasma and optical rotation measurement; format: in vitro ADME; conditions: extracted from rat plasma; specific optical rotation compared to initial value
Source text: MBPC was not included in such a series. […] The slightly better BPR of (S)-MBPC may contribute to its better rat anticonvulsant ED50 value. MBPC’s BPR values were better than that of (S)-MSPC but lower than those of racemic- and (R)-MSPC [10]. While (R)-MSPC has lower plasma and brain exposure compared to (S)-MSPC, the two MBPC enantiomers had similar brain permeability, with a slightly better BPR value for (S)-MBPC.

T3 sequence (P22748 19-312): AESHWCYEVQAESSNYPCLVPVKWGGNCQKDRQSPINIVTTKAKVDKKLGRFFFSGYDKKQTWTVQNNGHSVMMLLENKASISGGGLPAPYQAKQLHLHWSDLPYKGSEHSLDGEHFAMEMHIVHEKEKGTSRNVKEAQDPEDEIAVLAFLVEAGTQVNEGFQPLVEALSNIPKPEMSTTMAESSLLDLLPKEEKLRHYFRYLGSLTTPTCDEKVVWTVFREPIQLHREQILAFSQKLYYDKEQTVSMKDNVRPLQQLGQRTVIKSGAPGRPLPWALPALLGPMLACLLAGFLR
T1 sequence (P00915 whole entry, canonical isoform): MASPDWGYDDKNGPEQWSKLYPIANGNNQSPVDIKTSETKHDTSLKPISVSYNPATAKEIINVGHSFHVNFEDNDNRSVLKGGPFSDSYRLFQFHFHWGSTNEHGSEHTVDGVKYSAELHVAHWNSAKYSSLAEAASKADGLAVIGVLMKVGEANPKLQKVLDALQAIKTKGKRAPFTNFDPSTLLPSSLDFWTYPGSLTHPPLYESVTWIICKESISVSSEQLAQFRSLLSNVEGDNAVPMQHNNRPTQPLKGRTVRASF
T4 sequence (P43166 whole entry, canonical isoform): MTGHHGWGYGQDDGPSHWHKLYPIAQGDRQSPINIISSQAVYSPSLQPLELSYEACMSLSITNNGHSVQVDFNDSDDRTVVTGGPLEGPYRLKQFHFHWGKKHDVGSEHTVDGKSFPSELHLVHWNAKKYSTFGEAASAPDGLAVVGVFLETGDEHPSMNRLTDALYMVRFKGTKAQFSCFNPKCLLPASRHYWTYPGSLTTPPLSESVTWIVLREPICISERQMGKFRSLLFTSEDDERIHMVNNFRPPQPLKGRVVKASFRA

SMILES | CL/F ([1]; plasma levels) | Cmax ([1]; plasma levels) | MRT ([1]; plasma levels) | Tmax ([1]; plasma levels) | half-life ([1]; plasma levels) | Vd/F ([1]; plasma levels) | AUC(0-inf) ([1]; 80 mg/kg, plasma levels) | AUCinf [2] | AUC(0-inf) ([2]; brain) | CL/F [2] | Cmax [2] | MRT [2] | Tmax [2] | half-life [2] | Vd/F [2] | ED50 [3] | TD50 [4] | Protective Index (PI = TD50/ED50) (rats [5]) | Ki [6] | Ki [7] | other results
CCC(C)OC(=O)Nc1ccc(S(N)(=O)=O)cc1 (racemic) [Racemic-MBPC] | 41.7 mL/min/kg | 15300 ng/mL | 1.7 h | 0.33 h | 0.5 h | 4.3 L/kg | 32000 ng·h/mL | 47800 ng·h/mL | 48000 ng·h/mL | 28.3 mL/min/kg | 16500 ng/mL | 2 h | 1.33 h | 0.7 h | 3.4 L/kg | 25 mg/kg | > 500 mg/kg | >20 | 97.1 ± 5.3 nM | 20.2 ± 1.5 nM | Kp ([2]; brain/plasma): 1.49; Ki [8]: 432 ± 28 nM; Ki [9]: 121 ± 8 nM
CCC(C)CCOC(=O)Nc1ccc(S(N)(=O)=O)cc1 (racemic) [Racemic-MSPC, 3-methylpentyl(4-sulfamoylphenyl)carbamate] |  |  |  |  |  |  |  |  |  |  |  |  |  |  |  |  |  |  |  |  | MES-ED50 [95% CI] ([10]; rats dosed i.p.): 13 [8–22] mg/kg; MES-ED50 [95% CI] ([10]; rats dosed p.o.): 28 [18–35] mg/kg; Neurotoxicity-TD50 [95% CI] (rats [11]; rats dosed i.p.): >250 mg/kg; Protective Index (PI = TD50/ED50) (rats [11]; rats dosed i.p.): >19; Neurotoxicity-TD50 [95% CI] (rats [11]; rats dosed p.o.): >500 mg/kg; Protective Index (PI = TD50/ED50) (rats [11]; rats dosed p.o.): >18; Ki [12]: 77 ± 4.7 nM; Ki [13]: 7.6 ± 0.5 nM; Ki [14]: 750 ± 42 nM; Ki [15]: 351 ± 26 nM
CC[C@@H](C)OC(=O)Nc1ccc(S(N)(=O)=O)cc1 [(R)-MBPC] | 55 mL/min/kg | 10700 ng/mL | 2 h | 1.7 h | 0.6 h | 6.7 L/kg | 24000 ng·h/mL | 30400 ng·h/mL | 30000 ng·h/mL | 43.3 mL/min/kg | 11400 ng/mL | 2.1 h | 2.7 h | 0.5 h | 5.4 L/kg | 39 mg/kg | > 500 mg/kg | >13 | 203 ± 13 nM | 7.1 ± 0.4 nM | higher clearance than its enantiomer ([1]; (R)- vs (S)-enantiomer): 65%; Kp ([2]; brain): 1.27; effectiveness relative to its (S)-enantiomer against hCA II ([7]; ratio of KI values): five times more effective; Ki [8]: 522 ± 26 nM; Ki [9]: 197 ± 14 nM; enantiostability (chiral inversion) [16]: no chiral inversion was observed
CC[C@@H](C)CCOC(=O)Nc1ccc(S(N)(=O)=O)cc1 [(R)-MSPC] |  |  |  |  |  |  |  |  |  |  |  |  |  |  |  |  |  |  |  |  | MES-ED50 [95% CI] ([10]; rats dosed i.p.): 39 [31–44] mg/kg; MES-ED50 [95% CI] ([10]; rats dosed p.o.): 30 [22–37] mg/kg; Neurotoxicity-TD50 [95% CI] (rats [11]; rats dosed i.p.): 134 [108–158] mg/kg; Protective Index (PI = TD50/ED50) (rats [11]; rats dosed i.p.): 3.4; Ki [12]: 34.1 ± 2.5 nM; Ki [13]: 3.3 ± 0.2 nM; Ki [14]: 810 ± 55 nM; Ki [15]: 170 ± 9 nM
CC[C@H](C)OC(=O)Nc1ccc(S(N)(=O)=O)cc1 [(S)-MBPC] | 33.3 mL/min/kg | 12700 ng/mL | 2.7 h | 1 h | 1.2 h | 5.7 L/kg | 40000 ng·h/mL | 51500 ng·h/mL | 52000 ng·h/mL | 26.7 mL/min/kg | 15200 ng/mL | 4.2 h | 1.66 h | 0.9 h | 5 L/kg | 19 mg/kg | > 200 mg/kg | >11 | 71.8 ± 6.5 nM | 34.9 ± 1.4 nM | AUCinf ([1]; plasma levels, 80 mg/kg): 39600 ng·h/mL; Kp ([2]; brain): 1.32; times more effective than the (R)-enantiomer against hCA I ([6]; ratio of KI values): 2.9 times; Ki [8]: 249 ± 13 nM; Ki [9]: 53.3 ± 2.9 nM; times more effective than the (R)-enantiomer against hCA VII ([9]; ratio of KI values): 3.7 times; enantiostability (chiral inversion) [16]: no chiral inversion was observed
CC[C@H](C)CCOC(=O)Nc1ccc(S(N)(=O)=O)cc1 [(S)-MSPC] |  |  |  |  |  |  |  |  |  |  |  |  |  |  |  |  |  |  |  |  | MES-ED50 [95% CI] ([10]; rats dosed i.p.): 43 [33–52] mg/kg; MES-ED50 [95% CI] ([10]; rats dosed p.o.): 24 [17–29] mg/kg; Neurotoxicity-TD50 [95% CI] (rats [11]; rats dosed i.p.): 149 [121–157] mg/kg; Protective Index (PI = TD50/ED50) (rats [11]; rats dosed i.p.): 3.5; Ki [12]: 130 ± 8 nM; Ki [13]: 20.3 ± 1.4 nM; Ki [14]: 593 ± 42 nM; Ki [15]: 744 ± 36 nM
